Reference: article PMC10891265 (2024)

Tested on: ATP aptamer (Apt-POSS) (DNA, aptamer) CCACCACGGTGGTGGTGGTTGTGGTGC
Test: UV absorption at 260 nm after centrifugation, Langmuir fit
Settings: PBS, 30 min

Row | SMILES | K (0.1 mg particle/mL, aptamer on nanoparticles, apparent) | binding (control nucleotide, captured less than ATP, ATP series 1 μM to 2 mM)
1 | Nc1ncnc2c1ncn2[C@@H]1O[C@H](COP(=O)(O)OP(=O)(O)OP(=O)(O)O)[C@@H](O)[C@H]1O | 46.5 ± 18.5 µM | 
2 | Nc1ccn([C@@H]2O[C@H](COP(=O)(O)OP(=O)(O)OP(=O)(O)O)[C@@H](O)[C@H]2O)c(=O)n1 |  | weak
